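Five concentrations, 48 hours, 96-well plates. The concentration for 50% growth inhibition is given as GI50.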 Activity calls are given as the source filed them. No stated cut-off is given here; in the data, active = GI50 up to about 1.1 µM and inactive = higher.
Assays:
Test in all cases: NCI tumour cell line growth inhibition, 48 h
[1] = tested on: UO-31
[2] = tested on: CCRF-CEM
[3] = tested on: HCC 2998
[4] = tested on: SN12C
[5] = tested on: Malme-3M
[6] = tested on: MCF7
[7] = tested on: SK-MEL-5
[8] = tested on: SNB-75
[9] = tested on: SR
[10] = tested on: Hs-578T
[11] = tested on: NCI/ADR-RES
[12] = tested on: LOX IMVI
[13] = tested on: NCI-H23
[14] = tested on: IGROV-1
[15] = tested on: U-251
[16] = tested on: RPMI-8226
[17] = tested on: MOLT-4
[18] = tested on: MDA-N
[19] = tested on: SW-620
[20] = tested on: MDA-MB-231
[21] = tested on: M14
[22] = tested on: HOP-92
[23] = tested on: SK-MEL-28
[24] = tested on: TK-10
[25] = tested on: A549
[26] = tested on: HL-60
[27] = tested on: UACC-257
[28] = tested on: DU-145
[29] = tested on: SF-268
[30] = tested on: SK-OV-3
[31] = tested on: SF-539
[32] = tested on: HCT-15
[33] = tested on: K562
[34] = tested on: NCI-H460
[35] = tested on: COLO 205
[36] = tested on: HOP-62
[37] = tested on: OVCAR-8
[38] = tested on: A498
[39] = tested on: BT-549
[40] = tested on: UACC-62
[41] = tested on: OVCAR-4
[42] = tested on: EKVX
[43] = tested on: CAKI-1
[44] = tested on: NCI-H226
[45] = tested on: 786-0
[46] = tested on: KM12
[47] = tested on: T47D

Question: With `SC1=NNC2(C(Cl)=N1)c1ccccc1-c1ccccc12` as the compound, how does the GI50 [1] read?
Answer: 6.44 µM (inactive)

Question: What about the GI50 [2] of the same compound?
Answer: > 10 µM (inactive)

Question: And the GI50 [3]?
Answer: > 10 µM (inactive)

Question: And the GI50 [4]?
Answer: > 10 µM (inactive)

Question: What about the GI50 [5] of the same compound?
Answer: > 10 µM (inactive)

Question: And the GI50 [6]?
Answer: > 10 µM (inactive)

Question: And the GI50 [7]?
Answer: > 10 µM (inactive)

Question: What about the GI50 [8] of the same compound?
Answer: > 10 µM (inactive)

Question: What about the GI50 [9] of the same compound?
Answer: > 10 µM (inactive)

Question: What about the GI50 [10] of the same compound?
Answer: > 10 µM (inactive)

Question: And the GI50 [11]?
Answer: > 10 µM (inactive)

Question: What about the GI50 [12] of the same compound?
Answer: > 10 µM (inactive)

Question: What about the GI50 [13] of the same compound?
Answer: > 10 µM (inactive)

Question: What about the GI50 [14] of the same compound?
Answer: > 10 µM (inactive)

Question: And the GI50 [15]?
Answer: > 10 µM (inactive)

Question: What about the GI50 [16] of the same compound?
Answer: > 10 µM (inactive)

Question: And the GI50 [17]?
Answer: > 10 µM (inactive)

Question: And the GI50 [18]?
Answer: > 10 µM (inactive)

Question: And the GI50 [19]?
Answer: > 10 µM (inactive)

Question: What about the GI50 [20] of the same compound?
Answer: > 10 µM (inactive)

Question: What about the GI50 [21] of the same compound?
Answer: > 10 µM (inactive)

Question: And the GI50 [22]?
Answer: > 10 µM (inactive)

Question: What about the GI50 [23] of the same compound?
Answer: > 10 µM (inactive)

Question: What about the GI50 [24] of the same compound?
Answer: > 10 µM (inactive)

Question: What about the GI50 [25] of the same compound?
Answer: > 10 µM (inactive)

Question: What about the GI50 [26] of the same compound?
Answer: > 10 µM (inactive)

Question: What about the GI50 [27] of the same compound?
Answer: > 10 µM (inactive)

Question: And the GI50 [28]?
Answer: > 10 µM (inactive)

Question: What about the GI50 [29] of the same compound?
Answer: > 10 µM (inactive)

Question: What about the GI50 [30] of the same compound?
Answer: > 10 µM (inactive)

Question: And the GI50 [31]?
Answer: > 10 µM (inactive)

Question: What about the GI50 [32] of the same compound?
Answer: > 10 µM

Question: And the GI50 [33]?
Answer: > 10 µM (inactive)

Question: What about the GI50 [34] of the same compound?
Answer: > 10 µM (inactive)

Question: And the GI50 [35]?
Answer: > 10 µM (inactive)

Question: What about the GI50 [36] of the same compound?
Answer: > 10 µM (inactive)

Question: What about the GI50 [37] of the same compound?
Answer: > 10 µM (inactive)

Question: What about the GI50 [38] of the same compound?
Answer: > 10 µM (inactive)

Question: And the GI50 [39]?
Answer: > 10 µM (inactive)

Question: What about the GI50 [40] of the same compound?
Answer: > 10 µM (inactive)

Question: And the GI50 [41]?
Answer: > 10 µM (inactive)

Question: What about the GI50 [42] of the same compound?
Answer: > 10 µM (inactive)

Question: And the GI50 [43]?
Answer: > 10 µM (inactive)

Question: What about the GI50 [44] of the same compound?
Answer: > 10 µM (inactive)

Question: And the GI50 [45]?
Answer: > 10 µM (inactive)

Question: And the GI50 [46]?
Answer: > 10 µM (inactive)

Question: And the GI50 [47]?
Answer: > 10 µM (inactive)

From ChEMBL document CHEMBL1201862, “PubChem BioAssay data set” (2004)
